EP0308983A2, “NMR imaging with Mn(II) coordination compositions” (priority 1987, dated 1989)
Where “and” joins values, the source holds several entries; their conditions need not be identical. Equal values may be shown once.

Columns and labels:
[1] = Plasma clearance: plasma T₁ and T₂ times after injection; assay type: in vivo; conditions: rabbit, 0.1 mmole/kg; for plasma T₁ / plasma T₂: 0.15 T
Experimental: A dose of 0.1 mmole/kg of GdDTPA was injected into a rabbit and blood samples were drawn at 10 min intervals for 50 min. The blood was centrifuged, and the plasma T₁ and T₂ times were measured at 0.15 T with a RADX PROTON SPIN ANALYZER (Houston, TX).

[2] = Paramagnetic relaxation properties in water at 10 MHz (0.15T), RADX spin analyzer; assay type: physicochemical; conditions: 10 MHz (0.15T); for spin-lattice (T₁) relaxation value / spin-spin (T₂) relaxation value: 37°C, triplicate, mean +/- SD; for millimolar relaxivity for T₁ / millimolar relaxivity for T₂: in water; for millimolar relaxivity for T₁: calculated from T₁ and concentration; for millimolar relaxivity for T₂: calculated from T₂ and concentration
Experimental: The paramagnetic relaxation properties of [manganese(II)·(H₂O)₂·(L-alanine)₂]⁺²(Cl₂)⁻² in water were measured at 10 MHz (0.15T) with a spin analyzer (RADX; Houston, TX) at 37°C. After thermal equilibrium, the spin-lattice (T₁) and spin-spin (T₂) relaxation values were measured in triplicate.
The paramagnetic relaxation of the title compound in water was measured at 10 MHz (0.15T) with a spin analyzer (RADX; Houston, TX). After thermal equilibrium, the spin-lattice (T₁) and spin-spin (T₂) relaxation values were measured.
Relaxivity was measured at 10 MHz (0.15T) as described in Example 10.
The relaxivity of the title compound was performed at 0.15 T (10 MHz) with a RADX Spin Analyzer (Houston, TX) at 37°C.

[3] = Paramagnetic relaxation properties in human plasma at 37°C; assay type: physicochemical; conditions: for T₂ value / T₁ value / R₁ / R₂ / T₁ changed by (repeat measurement) / T₂ changed by (repeat measurement): 37°C; for T₁ value: triplicate; for T₁ changed by (repeat measurement) / T₂ changed by (repeat measurement): repeat measurement 80 minutes later; for T₂ relaxivity in plasma, fold greater than GdDTPA: versus GdDTPA; for T₁ relaxivity in plasma, fold greater than GdDTPA: versus gadolinium diethylenetriaminepentaacetic acid chelate (GdDTPA)

| SMILES | millimolar relaxivity for T₁ [2] | millimolar relaxivity for T₂ [2] | R₁ [3] | R₂ [3] | T₁ changed by (repeat measurement) [3] | T₂ changed by (repeat measurement) [3] | T₂ relaxivity in plasma, fold greater than GdDTPA [3] | T₁ relaxivity in plasma, fold greater than GdDTPA [3] | spin-lattice (T₁) relaxation value ([2]; 0.97 mM solution in water) | spin-spin (T₂) relaxation value ([2]; 0.97 mM solution in water) | T₂ value ([3]; 92 µM final concentration) | T₁ value ([3]; 92 µM final concentration) | other results |
| --- | --- | --- | --- | --- | --- | --- | --- | --- | --- | --- | --- | --- | --- |
| O=C([O-])CN(CCN(CC(=O)[O-])CC(=O)O)CCN(CC(=O)[O-])CC(=O)O.[Gd+3] [GdDTPA, gadolinium diethylenetriaminepentaacetic acid chelate, reference compound] | – | – | – | – | – | – | – | – | – | – | – | – | time for which the plasma T₁ was maintained below 300 [1]: 10 min; plasma T₁ ([1]; 0 min (baseline)): 1380 ms; plasma T₂ ([1]; 0 min (baseline)): 588 ms; plasma T₁ ([1]; 10 min): 259 ms and 269 ms; plasma T₂ ([1]; 10 min): 245 ms; plasma T₁ ([1]; 20 min): 349 ms; plasma T₂ ([1]; 20 min): 287 ms; plasma T₁ ([1]; 30 min): 348 ms; plasma T₂ ([1]; 30 min): 283 ms; plasma T₁ ([1]; 40 min): 352 ms; plasma T₂ ([1]; 40 min): 270 ms; plasma T₁ ([1]; 50 min): 340 ms; plasma T₂ ([1]; 50 min): 298 ms |
| N[C@@H](Cc1ccc(O)cc1)C(=O)O.N[C@@H](Cc1ccc(O)cc1)C(=O)O.O.O.[Cl-].[Cl-].[Mn+2] [[Manganese(II)·(H₂O)₂·(L-tyrosine)₂]⁺²(Cl₂)⁻²] | 9.94 mM⁻¹ s⁻¹ | 38.7 mM⁻¹ s⁻¹ | 49.3 mM⁻¹ s⁻¹ | 71.6 mM⁻¹ s⁻¹ | 5% | 9% | 14.8 fold | 10.3 fold | – | – | – | – | spin-lattice (T₁) relaxation value ([2]; 0.68 mM solution in water): 148 ± 1 ms; spin-spin (T₂) relaxation value ([2]; 0.68 mM solution in water): 38 ± 1 ms; T₂ value ([3]; 65 µM final concentration): 216 ± 2 ms; T₁ value ([3]; 65 µM final concentration): 312 ± 20 ms |
| N[C@@H](Cc1c[nH]cn1)C(=O)O.N[C@@H](Cc1c[nH]cn1)C(=O)O.O.O.[Cl-].[Cl-].[Mn+2] [[Manganese(II)·(H₂O)₂·(L-histidine)₂]⁺²(Cl₂)⁻²] | 9.20 mM⁻¹ s⁻¹ | 35.6 mM⁻¹ s⁻¹ | 46.3 mM⁻¹ s⁻¹ | 58.4 mM⁻¹ s⁻¹ | 12% | 1% | 12.2 fold | 9.7 fold | 112 ± 4 ms | 29 ± 1 ms | 186 ± 3 ms | 235 ± 2 ms | – |
| CC(C)C[C@H](N)C(=O)O.CC(C)C[C@H](N)C(=O)O.O.O.[Cl-].[Cl-].[Mn+2] [[Manganese(II)·(H₂O)₂·(L-leucine)₂]⁺²(Cl₂)⁻²] | 9.33 mM⁻¹ s⁻¹ | 39.4 mM⁻¹ s⁻¹ | 45.7 mM⁻¹ s⁻¹ | 57.9 mM⁻¹ s⁻¹ | 5% | 4% | 12.1 fold | 9.5 fold | – | – | – | – | spin-lattice (T₁) relaxation value ([2]; 0.94 mM solution in water): 114 ± 9 ms; spin-spin (T₂) relaxation value ([2]; 0.94 mM solution in water): 27 ± 1 ms; T₂ value ([3]; 90 µM final concentration): 192 ± 0 ms; T₁ value ([3]; 90 µM final concentration): 243 ± 13 ms |
| CC[C@H](C)[C@H](N)C(=O)O.CC[C@H](C)[C@H](N)C(=O)O.O.O.[Cl-].[Cl-].[Mn+2] [[Manganese(II)·(H₂O)₂·(L-isoleucine)₂]⁺²(Cl₂)⁻²] | 9.66 mM⁻¹ s⁻¹ | 37.6 mM⁻¹ s⁻¹ | 47.3 mM⁻¹ s⁻¹ | 61.1 mM⁻¹ s⁻¹ | 2% | 8% | 12.7 fold | 9.9 fold | – | – | – | – | spin-lattice (T₁) relaxation value ([2]; 0.99 mM solution in water): 109 ± 7 ms; spin-spin (T₂) relaxation value ([2]; 0.99 mM solution in water): 28 ± 1 ms; T₂ value ([3]; 90 µM final concentration): 182 ± 5 ms; T₁ value ([3]; 90 µM final concentration): 235 ± 7 ms |
| NCCCC[C@H](N)C(=O)O.NCCCC[C@H](N)C(=O)O.O.O.[Cl-].[Cl-].[Mn+2] [Manganese(II)·(H₂O)₂·(L-lysine)₂]⁺²(Cl₂)⁻²] | 9.55 mM⁻¹ s⁻¹ | 39.7 mM⁻¹ s⁻¹ | 47.3 mM⁻¹ s⁻¹ | 56.6 mM⁻¹ s⁻¹ | 3% | 3% | 11.8 fold | 9.9 fold | 108 ± 9 ms | 26 ± 1 ms | 192 ± 8 ms | 230 ± 9 ms | – |
| O.O.O=C(O)[C@@H]1C[C@@H](O)CN1.O=C(O)[C@@H]1C[C@@H](O)CN1.[Cl-].[Cl-].[Mn+2] [[Manganese(II)·(H₂O)₂·(L-hydroxyproline)₂]⁺²(Cl₂)⁻²] | 9.19 mM⁻¹ s⁻¹ | 39.3 mM⁻¹ s⁻¹ | 43.7 mM⁻¹ s⁻¹ | 56.9 mM⁻¹ s⁻¹ | did not change | 1% | 11.9 fold | 9.1 fold | – | – | – | – | spin-lattice (T₁) relaxation value ([2]; 0.98 mM solution in water): 111 ± 3 ms; spin-spin (T₂) relaxation value ([2]; 0.98 mM solution in water): 26 ± 1 ms; T₂ value ([3]; 93 µM final concentration): 189 ± 9 ms; T₁ value ([3]; 93 µM final concentration): 246 ± 13 ms |
| CC(C)[C@H](N)C(=O)O.CC(C)[C@H](N)C(=O)O.O.O.[Cl-].[Cl-].[Mn+2] [Manganese(II)·(H₂O)₂·(L-valine)₂]⁺²(Cl₂)⁻²] | 9.12 mM⁻¹ s⁻¹ | 39.7 mM⁻¹ s⁻¹ | 43.5 mM⁻¹ s⁻¹ | 56.9 mM⁻¹ s⁻¹ | 4% | 4% | 11.9 fold | 9.1 fold | 113 ± 10 ms | 26 ± 1 ms | 191 ± 8 ms | 250 ± 2 ms | – |
| N[C@@H](CO)C(=O)O.N[C@@H](CO)C(=O)O.O.O.[Cl-].[Cl-].[Mn+2] [Manganese(II)·(H₂O)₂·(L-serine)₂]⁺²(Cl₂)⁻²] | 9.19 mM⁻¹ s⁻¹ | 37.8 mM⁻¹ s⁻¹ | 45.2 mM⁻¹ s⁻¹ | 56.9 mM⁻¹ s⁻¹ | 3% | 2% | 11.9 fold | 9.4 fold | – | – | – | – | spin-lattice (T₁) relaxation value ([2]; 0.989 mM solution in water): 111 ± 2 ms; spin-spin (T₂) relaxation value ([2]; 0.989 mM solution in water): 27 ± 1 ms; T₂ value ([3]; 93 µM final concentration): 189 ± 6 ms; T₁ value ([3]; 93 µM final concentration): 238 ± 9 ms |
| N[C@@H](CS)C(=O)O.N[C@@H](CS)C(=O)O.O.O.[Cl-].[Cl-].[Mn+2] [Manganese(II)·(H₂O)₂·(L-cysteine)₂]⁺²(Cl₂)⁻²] | 9.82 mM⁻¹ s⁻¹ | 41.2 mM⁻¹ s⁻¹ | 44.0 mM⁻¹ s⁻¹ | 57.2 mM⁻¹ s⁻¹ | 4% | 1% | 11.9 fold | 9.2 fold | 105 ± 4 ms | 25 ± 1 ms | 190 ± 17 ms | 247 ± 14 ms | – |
| N=C(N)NCCC[C@H](N)C(=O)O.N=C(N)NCCC[C@H](N)C(=O)O.O.O.[Cl-].[Cl-].[Mn+2] [[Manganese(II)·(H₂O)₂·(L-arginine)₂]⁺²(Cl₂)⁻²] | 2.96 mM⁻¹ s⁻¹ | 10.6 mM⁻¹ s⁻¹ | 24.8 mM⁻¹ s⁻¹ | 37.9 mM⁻¹ s⁻¹ | 8% | 22% | 7.9 fold | 5.2 fold | 348 ± 7 ms | 97 ± 4 ms | 287 ± 11 ms | 439 ± 27 ms | – |
| CSCC[C@H](N)C(=O)O.CSCC[C@H](N)C(=O)O.O.O.[Cl-].[Cl-].[Mn+2] [Manganese(II)·(H₂O)₂·(L-methionine)₂]⁺²(Cl₂)⁻²] | 9.73 mM⁻¹ s⁻¹ | 38.2 mM⁻¹ s⁻¹ | 42.3 mM⁻¹ s⁻¹ | 52.8 mM⁻¹ s⁻¹ | 1% | 5% | 11.2 fold | 8.8 fold | 106 ± 2 ms | 27 ± 1 ms | 202 ± 9 ms | 257 ± 18 ms | – |
